From patent publication US5462936A, “Benzothiazepine derivatives” (Shionogi & Co., Ltd., priority 1991, dated 1995)

Legend:
[1] = target: Calcium Channel (Oryctolagus cuniculus, UniProt P15381); test: Calcium channel antagonism: relaxing action on extracted blood vessel (rabbit femoral artery, contracture by 50 mM KCl); details: 50 mM KCl contracture, 50% of maximum relaxing (0.1 mM papaverine)
Protocol: (§1) Calcium Channel Antagonism and […] Action (Relaxing Action on Extracted Blood Vessel)
(§2) Male rabbits weighing 2-3 kg (Rabiton, Japanese albino species) were anesthetized through intravenous administration of pentobarbital (50 mg/kg), and sacrificed by bloodletting through dissection of axillary artery. Femoral artery was extracted, connective tissue surrounding the artery was removed, and helical specimen was prepared. The specimen was suspended in an organ bath (20 cc) filled with 37° C. Krebs-Henseleit nutritious solution and bubbled with a 95% O2 +5% CO2 mixed gas. 1.5 g of resting tension was loaded on femoral artery. Isometric change of the tension of the specimen was recorded on a thermal recorder (Nippon Koden WT-685G) via F-D pickup Nippon Koden (TB611T) and Preamp (Nippon Koden). Ca-antagonism of a test compound was evaluated by observing relaxing action due to accumulative addition of the compound on the contracture caused by the application of 50 mM KCl. α-Blocking action was similarly evaluated by observing such relaxing action on the contracture caused by the application of 1 μM norepinephrine (NE). […] The concentration of a given compound, which is necessary for giving 50% of the maximum relaxing (IC50), was determined using the above system.

[2] = test system: femoral artery; test: α-Blocking action: relaxing action on extracted blood vessel (rabbit femoral artery, contracture by 1 μM norepinephrine); details: Oryctolagus cuniculus, 1 μM norepinephrine contracture, 50% of maximum relaxing (0.1 mM papaverine), read-out: Relaxing action on Blood Vessel IC50, 1 μM-NE
Protocol: as §1, §2

[3] = test system: cardiac muscle damage due to ischemia; test: Anti-necrosis activity (left coronary ligation and reperfusion, CPK retention in left ventricle); format: in vivo, rat (Wistar); details: Rattus norvegicus; for inhibition in vivo at 1 mg/kg: 1 mg/kg iv; for inhibition in vivo at 0.3 mg/kg: 0.3 mg/kg iv
Protocol: Male Sic Wistar rats weighing 200-250 g were anesthetized with urethane (1 g/kg), and ramus descendens of the left coronaria was ligated for 20 minutes and then reperfused according to the method described by Hock et al (Hock, […]., Am. Heart J., 109 222, 1985). […] For three hours after the reperfusion, the rats were subjected to heat insulation on a warming mat. After 120 minutes, the hearts were extracted, and the free walls of the left ventricles were frozen and storred until determination of CPK activity. CPK activity was determined according to the method of Bernauer, W. (Arch. int. Pharmacodyn., 231 90, 1978) after minor modification. Thus, the extracted tissue was homogenized in 10 volumes of 0.1M Tris/HCl (pH 7.5) containing 1 mM mercaptoethanol and centrifuged at 20,000 g for 20 minutes. The supernatant was used for determination of CPK activity, which was conducted using a commercially available kit (CPK-Test, Wako). CPK was determined using serum CPK as a standard and expressed with "U/mg protein". […] The degree of the inhibition was measured in terms of the CPK activity retained in the left ventricle. The test results are shown in Table 7, wherein percentage of the retention (%) at each dose was calculated based on the following equation.

[4] = test system: cultured cardiac cells; test: Anti-hypoxia action on cultured cardiac cells (inhibition of CPK leakage); format: cell-based, rat (newborn Crj-SD); details: Rattus norvegicus, read-out: Anti-hypoxia Activity (%), rate of inhibition on CPK leakage
Protocol: Anti-hypoxia action of the compounds of the present invention were investigated through studying their action in connection with the protection of cardiomuscular cells.
Primary culture of cardiac cells was prepared from newborn Crj-SD rats (2-3 day old) and used in the experiment. The primary culture was prepared according to the method described by Jones R. L. et al., Am. J. Pathol., 135, 541-556, 1989. Thus, cardiac cells were isolated from ventricle muscle using collagenase and pancreatin, and then the cardiac cells were separated and purified from cell debris, erythrocytes, and fibroblasts by means of Percoll density-gradient centrifugation. The cells were spread on a culture plate at a ratio of 2-3×10^5 cells/3.5 cm plate, and the cells were cultured for two days in Dulbecco's Modified Eagle's Medium (DMEM) containing 10% Fetal Bovine Serum (FBS) in an incubator (5% CO2 /95% Air) kept at 37° C. After sufficient growth of the cardiac cells, the culture medium was changed to DMEM free from FBS, and the culture was continued additional one day. The cells thus obtained were used in the experiment.
Hypoxia was generated using Gas Pak™ Anaerobic Chamber (BBL) which produces hypoxia by capturing residual O2 and changing it into H2 0 by the action of a H2 /CO2 generating bag and catalyst. The cardiac cell plate, wherein the culture medium had been changed to DMEM which is free from FBS and glucose, was set in the chamber, and the chamber was placed in an incubator. Anti-hypoxia activity of test compounds was determined by measuring inhibition rate of leakage of creatine phosphokinase activity into the culture medium.
The compounds tested were all dissolved in DMSO using HCO-50 as a solubilizing agent (DMSO:HCO-50=9:1), and directly charged onto the culture plate. The final concentrations of DMSO and HCO-50 in the culture medium were adjusted to 0.09% and 0.01% respectively. CPK activity was measured by colorimetry (Wako Kit) modified from Oliver method.
The numerical values in the table show cardiac cells-protecting activity of test compounds in terms of the rate (%) of inhibition on CPK leakage determined in connection with the test compounds when the amount of the CPK leakage for negative control (no addition of the test compounds) was defined as 100%.

[5] = test system: spontaneous hypertensive rats (SHR); test: Action on blood pressure and heart rate of not-anesthetized SHR; format: in vivo, rat (SHR); details: 2 and 4 hours after administration; for Antihypertensive action (%): decrease in SBP
Protocol: Action of the compounds of the invention on blood pressure and heart rate of not-anesthetized spontaneous hypertensive rats (SHR)
Male Japanese Charles-River SHR (13-17 week old) were used in the experiment (S. Matsuda, J. Pharmacol. Method, 17 361, 1987). Systolic blood pressure (SBP) and heart rate of the animals were measured non-invasively (indirectly) using hemadynamometer for caudal artery pressure (6 channel type) before the administration of test compounds, at 2 and 4 hours after administration. Test compounds were dissolved in DMSO (100%) and orally administered. Decreased values in SBP and heart rate determined 2 and 4 hours after administration when compared with those determined before administration are shown in percentage (%) in the following table.

Chain of Calcium Channel (P15381 whole entry): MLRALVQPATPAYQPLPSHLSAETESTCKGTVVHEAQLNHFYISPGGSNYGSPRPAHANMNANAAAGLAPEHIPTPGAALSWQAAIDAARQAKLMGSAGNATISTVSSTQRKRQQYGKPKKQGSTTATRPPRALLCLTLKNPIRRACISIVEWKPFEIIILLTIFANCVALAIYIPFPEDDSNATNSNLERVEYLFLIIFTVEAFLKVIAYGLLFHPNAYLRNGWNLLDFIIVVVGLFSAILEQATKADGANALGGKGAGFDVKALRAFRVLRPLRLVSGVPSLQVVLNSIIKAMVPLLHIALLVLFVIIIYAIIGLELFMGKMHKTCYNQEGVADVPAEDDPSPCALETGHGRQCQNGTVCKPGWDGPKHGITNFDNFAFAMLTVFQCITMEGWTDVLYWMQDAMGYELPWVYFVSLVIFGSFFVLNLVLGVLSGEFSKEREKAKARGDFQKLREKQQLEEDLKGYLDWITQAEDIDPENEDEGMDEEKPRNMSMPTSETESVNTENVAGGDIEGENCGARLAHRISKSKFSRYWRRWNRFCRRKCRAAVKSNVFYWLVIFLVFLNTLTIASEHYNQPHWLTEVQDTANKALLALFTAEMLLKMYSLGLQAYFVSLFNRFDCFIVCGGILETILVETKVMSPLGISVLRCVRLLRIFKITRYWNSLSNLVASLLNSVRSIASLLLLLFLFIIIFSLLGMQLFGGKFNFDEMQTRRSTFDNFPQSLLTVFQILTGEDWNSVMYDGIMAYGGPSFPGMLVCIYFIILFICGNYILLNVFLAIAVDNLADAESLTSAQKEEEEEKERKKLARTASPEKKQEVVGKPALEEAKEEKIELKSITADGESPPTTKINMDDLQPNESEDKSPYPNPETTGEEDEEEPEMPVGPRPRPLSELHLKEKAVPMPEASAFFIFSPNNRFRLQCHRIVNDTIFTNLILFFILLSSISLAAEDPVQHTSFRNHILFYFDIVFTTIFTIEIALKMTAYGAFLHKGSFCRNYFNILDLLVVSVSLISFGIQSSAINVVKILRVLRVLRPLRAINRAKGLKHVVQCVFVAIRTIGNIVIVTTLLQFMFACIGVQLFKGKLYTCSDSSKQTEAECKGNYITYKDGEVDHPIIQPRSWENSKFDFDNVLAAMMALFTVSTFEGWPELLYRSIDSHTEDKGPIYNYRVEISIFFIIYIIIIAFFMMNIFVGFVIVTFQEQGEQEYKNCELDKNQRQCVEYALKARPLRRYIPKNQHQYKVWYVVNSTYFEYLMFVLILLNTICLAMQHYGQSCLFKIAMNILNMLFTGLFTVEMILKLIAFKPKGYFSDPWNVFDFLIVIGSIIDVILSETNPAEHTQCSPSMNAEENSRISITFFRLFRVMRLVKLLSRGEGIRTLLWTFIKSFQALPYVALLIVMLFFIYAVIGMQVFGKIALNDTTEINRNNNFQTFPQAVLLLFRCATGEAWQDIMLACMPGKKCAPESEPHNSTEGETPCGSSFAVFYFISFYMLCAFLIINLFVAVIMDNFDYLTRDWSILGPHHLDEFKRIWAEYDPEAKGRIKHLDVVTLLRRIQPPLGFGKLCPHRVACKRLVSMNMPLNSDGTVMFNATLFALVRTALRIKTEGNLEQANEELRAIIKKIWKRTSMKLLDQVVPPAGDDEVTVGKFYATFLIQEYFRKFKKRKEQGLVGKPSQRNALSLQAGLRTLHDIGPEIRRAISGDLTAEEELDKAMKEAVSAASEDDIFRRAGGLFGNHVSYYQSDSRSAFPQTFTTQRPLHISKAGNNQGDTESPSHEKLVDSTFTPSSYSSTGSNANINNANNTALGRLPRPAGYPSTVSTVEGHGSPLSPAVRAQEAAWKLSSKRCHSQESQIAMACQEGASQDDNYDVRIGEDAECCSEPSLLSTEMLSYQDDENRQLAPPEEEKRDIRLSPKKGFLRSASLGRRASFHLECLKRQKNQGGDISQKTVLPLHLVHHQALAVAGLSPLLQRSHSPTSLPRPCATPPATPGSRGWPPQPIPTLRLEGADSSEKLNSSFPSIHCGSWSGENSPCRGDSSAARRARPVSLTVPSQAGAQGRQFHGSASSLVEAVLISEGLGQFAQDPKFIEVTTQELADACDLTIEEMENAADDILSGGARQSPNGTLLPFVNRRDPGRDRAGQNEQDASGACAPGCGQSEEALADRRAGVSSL
Chain of Calcium Channel (P13806 27-960 partner limits assumed): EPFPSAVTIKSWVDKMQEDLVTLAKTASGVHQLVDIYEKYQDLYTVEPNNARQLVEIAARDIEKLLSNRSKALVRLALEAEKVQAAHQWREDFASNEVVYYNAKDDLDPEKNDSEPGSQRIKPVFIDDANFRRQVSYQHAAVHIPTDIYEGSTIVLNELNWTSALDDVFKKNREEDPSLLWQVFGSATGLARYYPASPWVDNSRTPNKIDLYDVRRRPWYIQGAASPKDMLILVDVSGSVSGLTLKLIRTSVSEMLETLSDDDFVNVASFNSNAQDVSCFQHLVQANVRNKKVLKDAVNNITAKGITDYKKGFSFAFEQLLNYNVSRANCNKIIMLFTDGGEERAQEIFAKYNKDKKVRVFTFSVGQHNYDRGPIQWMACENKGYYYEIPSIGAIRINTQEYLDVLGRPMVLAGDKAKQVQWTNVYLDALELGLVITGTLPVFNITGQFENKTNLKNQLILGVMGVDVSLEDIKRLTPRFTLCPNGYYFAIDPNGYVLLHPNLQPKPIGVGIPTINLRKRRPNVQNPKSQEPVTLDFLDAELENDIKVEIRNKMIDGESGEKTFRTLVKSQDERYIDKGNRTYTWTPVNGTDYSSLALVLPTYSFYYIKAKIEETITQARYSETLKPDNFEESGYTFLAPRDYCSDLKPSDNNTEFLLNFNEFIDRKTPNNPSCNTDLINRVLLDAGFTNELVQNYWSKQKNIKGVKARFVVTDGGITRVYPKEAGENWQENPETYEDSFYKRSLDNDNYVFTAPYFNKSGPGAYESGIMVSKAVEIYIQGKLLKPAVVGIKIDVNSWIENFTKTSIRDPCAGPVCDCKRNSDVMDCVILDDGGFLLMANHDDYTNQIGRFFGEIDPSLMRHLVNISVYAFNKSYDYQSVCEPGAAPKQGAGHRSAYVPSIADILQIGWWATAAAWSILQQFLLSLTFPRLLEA
Chain of Calcium Channel (P13806 961-1106 partner limits assumed): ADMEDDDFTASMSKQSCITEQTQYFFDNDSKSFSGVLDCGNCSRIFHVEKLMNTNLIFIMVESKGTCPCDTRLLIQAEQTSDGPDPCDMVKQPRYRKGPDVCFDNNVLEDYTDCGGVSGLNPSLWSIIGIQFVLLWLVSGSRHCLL

Row | Compound | IC50 [1] [nM] | IC50 [2] [nM] | inhibition in vivo at 1 mg/kg [3] [%] | inhibition at 1 µM [4] [%] | inhibition at 10 µM [4] [%] | Decrease of heart rate (%) ([5]; 60 mg/kg PO) | Antihypertensive action (%) ([5]; 60 mg/kg PO) | Decrease of heart rate (%) ([5]; 30 mg/kg PO) | Antihypertensive action (%) ([5]; 30 mg/kg PO) | inhibition in vivo at 0.3 mg/kg [3] [%] | inhibition in vivo at 0.1 mg/kg ([3]; 0.1 mg/kg iv) [%]
1 | COc1ccc([C@@H]2Sc3cc(OC)ccc3N(CCCN3CCN(c4ccccc4OC)CC3)C(=O)[C@@H]2OC(C)=O)cc1 [Compound I-35, (2S-cis)-3-Acetoxy-5-[3-(4-(2-methoxyphenyl)-1-piperazinyl)propyl]-2,3-dihydro-2-(4-methoxyphenyl)-8-methoxy-l,5-benzothiazepin-4(5H)-one] | 120 | 30 | 37 |  |  |  |  |  |  |  | 
2 | COc1ccc([C@@H]2Sc3ccccc3N(CCN(C)C)C(=O)[C@@H]2OC(C)=O)cc1 [Diltiazem, reference compound] |  | 13300 | 13 | 10 | 29 | 15 | 11 |  |  |  | 
3 | COc1ccc([C@@H]2Sc3cc(Cl)ccc3N(CCCN3CCN(C(c4ccccc4)c4ccc(Cl)cc4)CC3)C(=O)[C@@H]2OC(C)=O)cc1 (stereo partly drawn) [Compound I-22, (2S-cis)-3-Acetoxy-5-[3-(4-(4-chlorobenzhydryl)-1-piperazinyl)propyl]-2,3-dihydro-2-(4-methoxyphenyl)-8-chloro-l,5-benzothiazepin-4(5H)-one] | 340 |  |  | 25.7 | 73.9 |  |  | 9.4 | 18 | 45 | 
4 | COc1ccc([C@@H]2Sc3cc(Cl)ccc3N(CCCN3CCN(C(c4ccc(F)cc4)c4ccc(F)cc4)CC3)C(=O)[C@@H]2OC(C)=O)cc1 (relative stereo) [Compound I-15, 3-Acetoxy-5-[3-(4-(4,4'-difluorobenzhydryl) -1-piperazinyl)propyl]-2,3-dihydro-2-(4-methoxyphenyl)-8-chloro-1,5-benzothiazepin-4(5H)-one] | 57 | 600 |  |  | 76 | 6.5 | 17 |  |  |  | 
5 | COc1ccc([C@@H]2Sc3cc(Cl)ccc3N(CCCN3CCN(c4ccccc4OC)CC3)C(=O)[C@@H]2OC(C)=O)cc1.Cl [Compound I-18, (2S-cis)-3-Acetoxy-5-[3-(4-(2-methoxyphenyl) -1-piperazinyl)propyl]-2,3-dihydro-2(4-methoxyphenyl) -8-chloro-1,5-benzothiazepin-4(5H)-one hydrochloride] | 250 | 37 |  | 23.7 | 73.9 |  |  | 7.0 | 18 | 42 | 30
6 | COc1ccc([C@@H]2Sc3cc(C)ccc3N(CCCN3CCN(c4ccccc4OC)CC3)C(=O)[C@@H]2OC(C)=O)cc1 [Compound I-36, (2S-cis)-3-Acetoxy-5-[3-(4-(2methoxyphenyl) - 1-piperazinyl)propyl]-2,3-dihydro-2-(4-methoxyphenyl)-8-methyl-1,5-benzothiazepin-4 (5H)-one] | 140 | 20 | 30 |  |  |  |  |  |  |  | 
7 | COc1ccc([C@@H]2Sc3cc(Cl)ccc3N(CCCN3CCN(c4ccccc4OC)CC3)C(=O)[C@@H]2OC(C)=O)cc1 (relative stereo) [Compound I-8, 3-Acetoxy-5-[3-(4-(2-methoxyphenyl)-piperazinyl)propyl]-2,3-dihydro-2-(4-methoxyphenyl)-8-chloro-1,5-benzothiazepin-4(5H)-one] | 280 | 60 |  | 17 | 70 |  |  | 3.2 | 15 | 29 | 
